Reference: patent US20140357512A1, “HISTONE DEACETYLASE (HDAC) BIOMARKERS IN MULTIPLE MYELOMA” (priority 2013, published 2014)

Tested on: human myeloma cell line MM.1S
Test: SILAC acetylated-lysine peptide profiling, HDAC inhibitor vs DMSO (light/heavy ratio)
Assay type: cell-based
From the text: An embodiment of the invention comprises utilizing the SILAC method in order to quantitate changes in protein expression between two or more populations of cells. The SILAC method is a technique based on mass spectrometry that detects differences in protein abundance among samples using non-radioactive isotopic labeling. The SILAC method is known in the art, and described in detail in Ong et al., “Stable Isotope Labeling by Amino Acids in Cell Culture, SILAC, as a Simple and Accurate Approach to Expression Proteomics”, Molecular & Cellular Proteomics, vol. 1, pp. 376-386 (2002), which is incorporated herein by reference in its entirety.
Briefly, the SILAC method involves growing two populations of cells in cell culture. The first population of cells is grown in growth media containing normal amino acids (“normal media”). The second population of cells is grown in media lacking a standard essential amino acid (such as lysine), but is then supplemented with a non-radioactive, isotopically labeled form of that essential amino acid (such as lysine labeled with ^13C atoms, rather than normal ^12C atoms), which is called “heavy media”. When the two populations of cells are each growing in the medium, they incorporate the amino acids into all of their proteins. The growth of cells maintained in the heavy media is no different from that in normal media. All peptides containing the heavy amino acids are heavier than their normal counterparts. The cells from each of the two populations of cells are lysed. The lysates from each of the two cell populations are then combined. The combined cell lysates are then analyzed by mass spectrometry. Pairs of chemically identical peptides of different stable isotope composition can be differentiated in a mass spectrometer due to their difference in mass. The ratio of peak intensities in the mass spectrum for such peptide pairs reflects the abundance ratio for the two proteins.
This example describes SILAC studies that were performed to compare the effects of three different HDAC inhibitors (Compound A, Compound B, and tubastatin A) to a control on a human multiple myeloma cell line. The HDAC inhibitors were also compared amongst themselves to determine differences in their effects.
A human myeloma cell line MM.1S was grown using either ^12C (light) or ^13C (heavy) lysine containing culture medium. The “heavy” cells were treated with DMSO as the control, and the “light” cells were treated with a single HDAC inhibitor at 37° C. for 6 hours. The heavy and light cells were lysed, and the lysates were mixed in 1:1 ratio and digested with the protease trypsin. The acetylated lysine containing peptides (due to the action of the HDAC inhibitor) in the digested peptide pool were captured by a non-specific anti-acetylated lysine antibody cocktail (the antibodies identify both light and heavy acetylated peptides), and subjected to mass spectrometry analysis in order to identify thousands of individual peptides.
Thousands of peptides were identified in pairs (^12C and ^13C) due to their known mass differences. The amino acid sequence and quantitative ratio (Light/Heavy) of a given peptide in two differentially treated cell lysates were then determined and annotated with their possible protein (gene) sources.
As stated above, three HDAC inhibitors (Compound A, Compound B, and Tubastatin A) were used. Thus, the SILAC method was performed three times, with a different HDAC inhibitor compared to a control each time. Accordingly, there are three pairs of quantitative data in the table below, i.e., Compound A:DMSO, Compound B:DMSO, and Tubastatin A:DMSO. A cut-off of 1.30 fold of change (increase or decrease) was then used to determine “changed” or “+” in the table, and any peptides with a fold of change less than 1.3 fold were determined to be “unchanged” or “0” in the table. Those peptides that were not identified were marked as “NA” in the table. […]

With `O=C(NO)c1cnc(NC2(c3cccc(F)c3)CCCCC2)nc1` [Compound B, 2-((1-(3-fluorophenyl)cyclohexyl)amino)-N-hydroxypyrimidine-5-carboxamide] the “light to heavy ratio (L/H ratio) of acetylated peptide, log 2 scale” value (FLNAENAQK(ac)FK (SEQ ID NO: 200), Ran-specific GTPase-activating protein [150], RANBP1) was 0.00, the “light to heavy ratio (L/H ratio) of acetylated peptide, log 2 scale” value (FNQK(ac)GEVYK (SEQ ID NO: 149), Lipoamide acyltransferase component of branched-chain alpha-keto acid dehydrogenase complex mitochondrial [435], DBT) was 0.00 and the “light to heavy ratio (L/H ratio) of acetylated peptide, log 2 scale” value (FPHSAHQK(ac)YVR (SEQ ID NO: 253), Ribosomal protein L14 variant [71], RPL14) was 0.00. For the same molecule, the “L/H ratio of acetylated peptide” value (FQAK(ac)[…] (SEQ ID NO: 415), Microtubule-associated protein RP/EB family member 1 [66], MAPRE1) was −1.00 log 2, the “light to heavy ratio (L/H ratio) of acetylated peptide, log 2 scale” value (FWNK(ac)FLENK (SEQ ID NO: 187), NADH dehydrogenase [ubiquinone] 1 beta subcomplex subunit 6 [49], NDUFB6) was 0.00 and the “light to heavy ratio (L/H ratio) of acetylated peptide AVDLIQK(ac)HK (SEQ ID NO: 546)” value (Flap endonuclease 1 [252], gene FEN1, inhibitor:DMSO) was 0.00 log 2. The “light to heavy ratio (L/H ratio), log 2 scale, acetylated peptide GGVVGIK(ac)VDK (SEQ ID NO: 774)” value (Fructose-bisphosphate aldolase A [108], gene ALDOA, drug:DMSO) was 0.00, the “L/H ratio of acetylated peptide ASGLAAGK(ac)GVIVAK (SEQ ID NO: 37)” value (GART [156], log 2 scale, drug vs DMSO) was 0.00 and the “light to heavy ratio (L/H ratio) of acetylated peptide, log 2 scale” value (GDASK(ac)EDIDTAMK (SEQ ID NO: 161), Isoform 1 of Hydroxyacyl-coenzyme A dehydrogenase mitochondrial [241], HADH) was 0.00. The “light to heavy ratio (L/H ratio) of acetylated peptide, log 2 scale” value (GDGTGGK(ac)SIYGER (SEQ ID NO: 196), Peptidyl-prolyl cis-trans isomerase B [116], PPIB) was 0.00, the “light to heavy ratio (L/H ratio) of acetylated peptide, log 2 scale” value (GFGGK(ac)YGVER (SEQ ID NO: 162), Hematopoietic lineage cell-specific protein [123], HCLS1) was 0.00 and the “light to heavy ratio (L/H ratio) of acetylated peptide, log 2 scale” value (GIVK(ac)DIIHDPGR (SEQ ID NO: 207), 60S ribosomal protein L8 [46], RPL8) was 0.00. For the same molecule, the “L/H ratio of acetylated peptide” value (GK(ac)LEEQRPER (SEQ ID NO: 459), Tumor protein translationally-controlled 1 [102], TPT1) was −0.42 log 2, the “L/H ratio of acetylated peptide” value (GK(ac)YMLVR (SEQ ID NO: 377), Carbohydrate sulfotransferase 1 [296], CHST1) was 1.00 log 2 and the “L/H ratio of acetylated peptide” value (GLAPQNK(ac)PELQK (SEQ ID NO: 393), Isoform 2 of Protein FAM107B [225], FAM107B) was 0.69 log 2. For the same molecule, the “light to heavy ratio (L/H ratio) of acetylated peptide, log 2 scale” value (GLFIIDDK(ac)GILR (SEQ ID NO: 197), Peroxiredoxin-1 [136], PRDX1) was 0.00, the “L/H ratio of acetylated peptide LVK(ac)VWNLANCK (SEQ ID NO: 39)” value (GNB2L1 [175], log 2 scale, drug vs DMSO) was 0.00 and the “L/H ratio of acetylated peptide IIVDELK(ac)QEVISTSSK (SEQ ID NO: 38)” value (GNB2L1 [271], log 2 scale, drug vs DMSO) was 0.00. For the same molecule, the “L/H ratio of acetylated peptide” value (GNTPK(ac)[…] (SEQ ID NO: 449), Nucleolar protein 56 [347], SNORD110, SNORD86, NOP56) was −0.41 log 2, the “L/H ratio of acetylated peptide (ac)AHYNFK(ac)K (SEQ ID NO: 40)” value (GTPBP4 [7], log 2 scale, drug vs DMSO) was 0.00 and the “L/H ratio of acetylated peptide” value (GYGFGLIK(ac)LDLK (SEQ ID NO: 465), Voltage-dependent anion-selective channel protein 1 [28], VDAC1) was −0.57 log 2. The “light to heavy ratio (L/H ratio) of acetylated peptide, log 2 scale” value (GYLTK(ac)EDLR (SEQ ID NO: 216), Protein S100-A10 [28], S100A10) was 0.00, the “light to heavy ratio (L/H ratio) of acetylated peptide (ac)[…](ac)PGECLR (SEQ ID NO: 575)” value (Galectin-1 [13], gene LGALS1, inhibitor:DMSO) was 0.00 log 2 and the “light to heavy ratio (L/H ratio) of acetylated peptide ISGASEK(ac)[…] (SEQ ID NO: 543)” value (Glutamate dehydrogenase 1 mitochondrial [503], gene GLUD1, inhibitor:DMSO) was 0.00 log 2. For the same molecule, the “light to heavy ratio (L/H ratio) of acetylated peptide […](ac)YDNSLK (SEQ ID NO: 620)” value (Glyceraldehyde-3-phosphate dehydrogenase [139], gene GAPDH, inhibitor:DMSO) was 0.00 log 2, the “light to heavy ratio (L/H ratio) of acetylated peptide VVK(ac)QASEGPLK (SEQ ID NO: 597)” value (Glyceraldehyde-3-phosphate dehydrogenase [263], gene GAPDH, inhibitor:DMSO) was 0.00 log 2 and the “light to heavy ratio (L/H ratio) of acetylated peptide AHLQK(ac)LMSDK (SEQ ID NO: 549)” value (Glycyl-tRNA synthetase [224], gene GARS, inhibitor:DMSO) was 0.00 log 2. For the same molecule, the “light to heavy ratio (L/H ratio), log 2 scale, acetylated peptide LLLLGAGESGK(ac)STIVK (SEQ ID NO: 769)” value (Guanine nucleotide-binding protein G(olf) subunit alpha [55], gene GNAL, drug:DMSO) was 0.00, the “L/H ratio of acetylated peptide AGGK(ac)AGK(ac)DSGK (SEQ ID NO: 15)” value (H2AFV [5:8], log 2 scale, drug vs DMSO) was 0.95 and the “light to heavy ratio (L/H ratio) of acetylated peptide FSPDDK(ac)YSR (SEQ ID NO: 504)” value (H/ACA ribonucleoprotein complex subunit 3 [40], gene NOP10, inhibitor:DMSO) was 0.00 log 2. For the same molecule, the “L/H ratio of acetylated peptide GQQQVFK(ac)GLNDK (SEQ ID NO: 41)” value (HADHA [406], log 2 scale, drug vs DMSO) was 0.00 and the “L/H ratio of acetylated peptide EPVAVLK(ac)ANR (SEQ ID NO: 9)” value (HEXB [161], log 2 scale, drug vs DMSO) was −0.40.
